Experiments:
[1] = tested on: Xylose reductase (Candida tenuis); assay: Ratio of catalytic constant (kcat)/Kinetic constant(Km)
[2] = tested on: Xylose reductase (Candida tenuis); assay: The catalytic constant(kcat) for the NADH-catalyzed by aldose reductase from candida tenuis; details: Yamadazyma tenuis

| Compound | k cat/Km [1] [M⁻¹ s⁻¹] | k cat [2] [s⁻¹] |
| --- | --- | --- |
| OC1O[C@H](CF)[C@H](O)[C@H]1O (some centres undefined) | 34300 | 22.3 |
| OC1OC(C(F)CF)C(O)C1O (centres undefined) | 15300 | 21.4 |
| C[C@H]1OC(O)[C@H](O)[C@H]1O (some centres undefined) | 23200 | 21.6 |
| CC[C@H]1OC(O)[C@H](O)[C@H]1O (some centres undefined) | 38900 | 20.6 |
| [N-]=[N+]=NC[C@H]1OC(O)[C@H](O)[C@H]1O (some centres undefined) | 1690 | – |

From ChEMBL document CHEMBL1131752, “Binding and catalysis by yeast aldose reductase: a substrate-analog approach with new aldose derivatives” (Bioorg Med Chem Lett, 1999)
